The text below walks through data of patent publication EP1724268A1, “COMPOUND HAVING TGF-BETA INHIBITORY ACTIVITY AND PHARMACEUTICAL COMPOSITION CONTAINING SAME” (KIRIN BEER KABUSHIKI KAISHA, priority 2004, dated 2005).

In the assay the test system is TGFβ signal. Briefly: TGFβ signal inhibitory activity, (SBE)4-Luc reporter in A549 cells (Test Examples 1A and 1B). The assay is classed as cell-based, human. To be noted: Homo sapiens, A549, read-out: TGFβ inhibition rate, %. The procedure: Test Example 1A: TGFβ signal inhibitory activity (in vitro test) The compounds according to the present invention was evaluated for TGFβ signal inhibitory activity according to the method described in J. Boil .Chem., 273, 21145-21152 (1998). Specifically, a plasmid having four tandem binding sequences of Smad3, a TGF-beta signal transducer, to the upstream of a luciferases gene were used as a reporter plasmid ((SBE)4-Luc) to detect TGF-beta signal, This reporter gene was introduced into human pulmonary carcinoma epithelial cells (A549) (available from ATCC) to establish a stable cell line. A test compound and TGFβ-1 (2 ng/ ml) were added to the cells, and the mixture was cultured for 4 hr. In this case, the compounds according to the present invention synthesized in the Examples were used as the test compound. After the culture, the luciferase activity of the cells were measured by chemiluminescence (Steady Glo (trademark) luciferase assay system, available from Promega). Likewise, the luciferase activity was measured as a control against the culture of cells with the addition of TGFβ only and the culture of cells without the addition of both TGFβ and the test compound.
The TGFβ inhibition (%) was calculated by the following equation, based on the measurement results. TGFβ inhibition(%) = (A-B)/(A-C) × 100 [formula] wherein • A: luciferase activity with the addition of TGFβ1 and without the addition of test compound (relative luciferase unit), • B: luciferase activity with the addition of both TGFβ1 and test compound (relative luciferase unit), and • C: luciferase activity without the addition of both TGFβ1 and test compound (relative luciferase unit).
The test was carried out for each of test compound at the concentrations of 3 µM and 10 µM. For certain test compounds, the test was further carried out for test compound at the concentration of 1 µM.
For the compounds of Reference Examples, the TGFβ signal inhibitory activity was evaluated in the same manner as in Test Example 1A.

Where [1] appears, read: 3 µM, compounds of Reference Examples (Test Example 1B).
Where [2] appears, read: 10 µM, compounds of Reference Examples (Test Example 1B).
Setting [3] is: test compound 3 µM, Reference Examples, Table 1B.
Setting [4] is: test compound 10 µM, Reference Examples, Table 1B.
The mark [5] stands for this setting: test compound 3 µM, TGFβ-1 2 ng/ml, 4 hr, Table 1A.
The mark [6] stands for this setting: test compound 10 µM, TGFβ-1 2 ng/ml, 4 hr, Table 1A.

Like-named read-outs stand apart in the source and are kept apart here.

Usually inhibition stands for the percentage by which the read-out fell short of the control.

As for `COc1cc2nccc(Oc3ccc(C)nc3-c3cc(C)nn3C)c2cc1OC` [Compound r257], under setting [1], the inhibition at 3 µM turned out to be 15%. For the same compound, the inhibition at 10 µM under setting [2] is 62%.
Turning to `COc1cc2nccc(Oc3ccc(C)cc3C(=O)CCC3CCCC3)c2cc1OC` [Compound r56], the inhibition at 3 µM under setting [3] came out at 0%. The inhibition at 10 µM under setting [4] turned out to be 84%.
As for `COc1cc2c(Oc3cc4ccccc4nc3C)ccnc2cc1OCCN1CCCCC1` [Compound r358], the inhibition at 3 µM under setting [1] stood at 100%. In addition, the inhibition at 10 µM under setting [2] came to 100%.
Turning to `COc1cc2nccc(Oc3ccc(C)nc3-c3cccc(C(F)(F)F)c3)c2cc1OC` [Compound r230], under setting [1], the inhibition at 3 µM stood at 60%. Under setting [2], the inhibition at 10 µM is 97%.
`COc1cc2nccc(Oc3cc(C)c(C)nc3-c3ccc(C)cn3)c2cc1OC` [Compound r272]: the inhibition at 3 µM under setting [1] was found to be 98%. Besides, under setting [2], the inhibition at 10 µM was 100%.
On the same counts, the results for `COc1cc2c(Oc3cc4ccccc4nc3C)ccnc2cc1OCCCl` [Compound r353] are 54% and 86%.
Consider `COc1cc2c(Oc3ccc(C)cc3C(=O)c3ccccc3)ccnc2cc1OCCN1CCN(C)CC1` [Compound r129], for which the inhibition at 3 µM under setting [3] was determined as 100%. Besides, the inhibition at 10 µM under setting [4] amounted to 100%.
In the case of `COc1cc2c(Oc3ccc(C)cc3C(=O)c3ccccc3)ccnc2cc1OCC(O)CN1CCNCC1` (stereo not drawn) [Compound r157], the inhibition at 3 µM under setting [3] worked out at 100%. Also, under setting [4], the inhibition at 10 µM stood at 100%.
On to `COc1cc2nccc(Sc3ccc4ccccc4n3)c2cc1OC` [r420], for which the inhibition at 3 µM under setting [1] stood at 2%. Under setting [2], the inhibition at 10 µM turned out to be 62%.
As for `COc1cc2nccc(Oc3cc(C)c(C)nc3-c3cccnc3C)c2cc1OC` [Compound 44, 3-(6,7-Dimethoxy-quinolin-4-yloxy)-5,6,2'-trimethyl-[2,3']bipyridine], the inhibition at 3 µM under setting [5] was determined as 82%. In addition, under setting [6], the inhibition at 10 µM came to 99%.
`CCOC(=O)C1CCCN(CCOc2cc3nccc(Oc4cc5ccccc5nc4C)c3cc2OC)C1` (stereo not drawn) [Compound r361]: under setting [1], the inhibition at 3 µM was 96%. The inhibition at 10 µM under setting [2] was 100%.
Turning to `COC(=O)c1cc2c(Oc3cc4cccnc4nc3-c3ccccc3)ccnc2cc1Cl` [Compound 148, Methyl 7-chloro-4-(2-phenyl-[1,8]naphthyridin-3-yloxy)-quinoline-6-carboxylate], under setting [5], the inhibition at 3 µM came to 58%. The inhibition at 10 µM under setting [6] stood at 98%.
For the compound `CCCOC(=O)c1cc2ccccc2cc1Oc1ccnc2cc(OCCN3CCOCC3)c(OC)cc12` [Compound r323], the inhibition at 3 µM under setting [1] was found to be 89%. Also, the inhibition at 10 µM under setting [2] was determined as 100%.
In the same order, the values of `COc1cc2c(Oc3cc4ccccc4nc3C)ccnc2cc1OCCO` [Compound r369] are 99% and 100%.
Turning to `Clc1ccc2nccc(Oc3cc4cccnc4nc3-c3ccccc3)c2c1Cl` [Compound 57, 3-(5,6-Dichloro-quinolin-4-yloxy)-2-phenyl-[1,8]naphthyridine], the inhibition at 3 µM under setting [5] came out at 75%. Moreover, the inhibition at 10 µM under setting [6] worked out at 100%.
On the same counts, the results for `CCc1ccc(Oc2ccnc3ccc(OCCOC(=O)C(C)(C)CC)cc23)c(-c2ncccn2)n1` [Compound 224, 2-[4-(6-Ethyl-2-pyrimidin-2-yl-pyridin-3-yloxy)-quinolin-6-yloxy]-ethyl 2,2-dimethyl-butanoate] are 95% and 100%.
Turning to `COc1cc2nccc(Oc3ccc(C)nc3-c3cn[nH]c3)c2cc1OC` [r434], the inhibition at 3 µM under setting [1] turned out to be 100%. Besides, the inhibition at 10 µM under setting [2] was 100%.
For `COc1cc2ncnc(Oc3cc4cccnc4nc3-c3ccccc3)c2cc1OC` [r436], the inhibition at 3 µM under setting [1] was 99%. Besides, the inhibition at 10 µM under setting [2] was 100%.
On the same counts, the results for `COc1cc2nccc(Oc3ccc(C)nc3-c3ccccc3Cl)c2cc1OC` [Compound r228] are 88% and 100%.
As to `CCc1ccc(Oc2ccnc3cc(C(N)=O)c(Cl)cc23)c(-c2ccccn2)n1` [Compound 185, 6-Chloro-4-(6-ethyl-[2,2']bipyridinyl-3-yloxy)-quinoline-7-carboxylic acid amide], under setting [5], the inhibition at 3 µM came to 96%. Further, the inhibition at 10 µM under setting [6] was 100%.
Consider `COc1cc2c(Oc3cc4ccccc4nc3C)ccnc2cc1OCCN` [Compound r354], for which, under setting [1], the inhibition at 3 µM worked out at 100%. For the same compound, the inhibition at 10 µM under setting [2] was 100%.
Take `Cc1ccc(Oc2ccnc3ccc(OCCCN(C)CCO)cc23)c(-c2ncccn2)n1` [Compound 211, 2-(Methyl-{3-[4-(6-methyl-2-pyrimidin-2-yl-pyridin-3-yloxy)-quinolin-6-yloxy]-propyl}-amino)-ethanol]: the inhibition at 3 µM under setting [5] came to 54%.
On the same count and under the same terms, in the case of `Cc1ccc(Oc2ccnc3ccc(OCCCN4CCCCC4)cc23)c(-c2ncccn2)n1` [Compound 212, 4-(6-Methyl-2-pyrimidin-2-yl-pyridin-3-yloxy)-6-(3-piperidin-1- ? -propoxy)-quinoline] it was 55%.
On to `CCOC(=O)c1cc(F)ccc1Sc1ccnc2cc(OC)c(OC)cc12` [Compound r419], for which the inhibition at 3 µM under setting [1] was found to be 7%. In addition, under setting [2], the inhibition at 10 µM is 67%.
`COc1cc2nccc(Oc3ccc(C)cc3C(=O)c3ccc(C(C)(C)C)cc3)c2cc1OC` [r73]: under setting [3], the inhibition at 3 µM came to 24%. The inhibition at 10 µM under setting [4] was determined as 81%.
On to `COc1cc2nccc(Oc3ccc(C)cc3C(=O)CC(C)(C)C)c2cc1OC` [Compound r55], for which, under setting [3], the inhibition at 3 µM turned out to be 53%. In addition, under setting [4], the inhibition at 10 µM stood at 98%.
Regarding `COc1cc2nccc(Oc3cc4ccccc4nc3C(C)=O)c2cc1OC` [Compound r278, 1-[3-(6,7-Dimethoxy-quinolin-4-yloxy)-quinolin-2-yl]-ethanone], under setting [1], the inhibition at 3 µM came out at 90%. Moreover, the inhibition at 10 µM under setting [2] is 99%.
As for `COc1cc2nccc(Oc3cc4ccncc4nc3C)c2cc1OC` [Compound 97, 3-(6,7-Dimethoxy-quinolin-4-yloxy)-2-methyl-[1,7]naphthyridine], the inhibition at 3 µM under setting [5] came out at 52%. Also, under setting [6], the inhibition at 10 µM was determined as 88%.
As for `COc1cc2c(Oc3ccc(C)cc3C(=O)c3ccccc3)ccnc2cc1OCC(O)CN1CCC(CO)CC1` (stereo not drawn) [r154], the inhibition at 3 µM under setting [3] is 99%. Besides, under setting [4], the inhibition at 10 µM was 100%.
In the case of `COc1cc2nccc(Oc3cc(C)c(C)nc3-c3ccccn3)c2cc1NCCO` [Compound 154, 2-[4-(5,6-Dimethyl-[2,2']bipyridinyl-3-yloxy)-7-methoxy-quinolin-6-ylamino]-ethanol], the inhibition at 3 µM under setting [5] was determined as 99%. Also, the inhibition at 10 µM under setting [6] came to 100%.
Turning to `Cc1ccc(Oc2ccnc3ccc(OCCN4CCOCC4)cc23)c(-c2ncccn2)n1` [Compound 209, 4-(6-Methyl-2-pyrimidin-2-yl-pyridin-3-yloxy)-6-(2-morpholin-4--yl-ethoxy)-quinoline], the inhibition at 3 µM under setting [5] was determined as 54%.
Consider `CCOc1ccc(Oc2ccnc3cc(OC)c(OC)cc23)c(C(C)=O)c1` [Compound r178, 1-[2-(6,7-Dimethoxy-quinolin-4-yloxy)-5-ethoxy-phenyl]-ethanone], for which the inhibition at 3 µM under setting [1] was 66%. The inhibition at 10 µM under setting [2] was determined as 97%.
For `COc1cc2nccc(Oc3cc(C)c(C)nc3-c3ccccn3)c2cc1C(N)=O` [Compound 22, 4-(5,6-Dimethyl-[2,2']bipyridin-3-yloxy)-7-methoxy-quinoline-6-carboxylic acid amide], under “test compound 1 µM, TGFβ-1 2 ng/ml, 4 hr, Table 1A”, the inhibition at 1 µM worked out at 81%. Besides, under setting [5], the inhibition at 3 µM was 99%.
Regarding `COc1cc2c(Oc3cc4ccccc4nc3C)ccnc2cc1OCCNC(=O)CC(C)(C)CC(=O)O` [Compound r357], the inhibition at 3 µM under setting [1] is 27%. The inhibition at 10 µM under setting [2] is 60%.
Turning to `COc1cc2nccc(Oc3ccc(Cl)cc3C(=O)Nc3ccccc3)c2cc1OC` [Compound r105], under setting [3], the inhibition at 3 µM came to 17%. Under setting [4], the inhibition at 10 µM turned out to be 88%.
`COc1cc2c(Oc3cc4ccccc4nc3C)ccnc2cc1CCCN1CCOCC1` [Compound r412]: the inhibition at 3 µM under setting [1] is 77%. The inhibition at 10 µM under setting [2] came out at 99%.
With `COc1cc2nccc(Oc3ccc4cc(Br)ccc4c3)c2cc1OC` [r18], the inhibition at 3 µM under setting [3] worked out at 15%. Besides, the inhibition at 10 µM under setting [4] worked out at 69%.
Turning to `COc1cc2nccc(Oc3cc4cccnc4nc3-c3ccccn3)c2cc1OC` [r421], under setting [1], the inhibition at 3 µM worked out at 94%. The inhibition at 10 µM under setting [2] worked out at 100%.
`c1ccc(-c2nc3ncccc3cc2Oc2ccnc3ccncc23)cc1` [Compound 74, 4-(2-Phenyl-[1,8]naphthyridin-3-yloxy)-[1,6]naphthyridine]: the inhibition at 3 µM under setting [5] came to 53%. In addition, the inhibition at 10 µM under setting [6] stood at 90%.
